In publication PMC12707346, “Discovery and validation of small molecule stabilizers of mutant triose phosphate isomerase (TPI) as potential lead candidates for TPI deficiency” (SLAS discovery : advancing life sciences R & D, 2025):
“Also recorded” adds a separate entry of the source. Read-outs that look alike come from different tables or passages of the source.

Test: Tissue distribution study in mice, 20 mg/kg i.p.
Assay type: in vivo, C57BL/6 J mice
Conditions: mouse; for concentration at 2 h / concentration at 4 h / concentration at 8 h / concentration at 0.5 h / concentration at 1 h / Kp at 1 h / Kp at 2 h / Kp at 4 h / Kp at 8 h / Kp at 0.5 h: male, IP 20 mg/kg; for concentration at 2 h / concentration at 4 h / concentration at 8 h / concentration at 0.5 h / concentration at 1 h: ip; for Kp at 1 h / Kp at 2 h / Kp at 4 h / Kp at 8 h / Kp at 0.5 h: read-out: Mean Tissue/ Plasma Conc Ratio
Protocol: Male C57BL/6 J (Jackson Laboratories) wild type mice (age: 40–60 days) weighing 25–30 g, were used for the tissue distribution study. Mice were randomly assigned in two groups: blank (n = 1) and treatment. The treatment group received 20 mg/kg compound 424 intraperitoneally (n = 15; 3 animals per time point i.e., 0.5, 1, 2, 4, and 8 h). Molport 002–877–424 was formulated in a vehicle consisting of 20 % DMSO, 50 % PEG300, and 30 % sterile water. At each time point animals were euthanized via isoflurane overdose. Blood was collected in ETDA-coated tubes at each time points and centrifuged at 15,000 x g for 5 min. The separated plasma was stored at −80 °C. Following blood collection, liver, kidney, skeletal muscle and brain were isolated, rinsed in normal saline and approximately 100 mg of tissues were snap-frozen and stored at −80 °C. All plasma and tissue samples were shipped on dry ice to Touchstone Biosciences for further analysis. Sample preparation and analysis was performed at Touchstone Biosciences exactly as described in [20].

[1] = C57BL/6 J, kidney, 20 mg/kg, Kidney, read-out: Mean Tissue
[2] = C57BL/6J, liver homogenate, 20 mg/kg, Liver, read-out: Mean Plasma or Tissue Homogenate Conc
[3] = C57BL/6J, liver homogenate, 20 mg/kg, Liver, read-out: Plasma or Tissue Homogenate Conc (individual animals)
[4] = C57BL/6J, liver, 20 mg/kg, Liver, read-out: Mean Tissue
[5] = C57BL/6J, muscle homogenate, 20 mg/kg, Muscle, read-out: Mean Plasma or Tissue Homogenate Conc
[6] = C57BL/6J, muscle homogenate, 20 mg/kg, Muscle, read-out: Plasma or Tissue Homogenate Conc (individual animals)
[7] = C57BL/6J, muscle, 20 mg/kg, Muscle, read-out: Mean Tissue
[8] = C57BL/6 J, plasma, 20 mg/kg, Plasma, read-out: Mean Plasma or Tissue Homogenate Conc
[9] = C57BL/6 J, plasma, 20 mg/kg, Plasma, read-out: Plasma or Tissue Homogenate Conc (individual animals)
[10] = C57BL/6J, muscle/plasma, Muscle

SMILES: c1ccc(-c2nnc(-c3ccccn3)nc2NC2CCCCC2)cc1 [MolPort-002-877-424, C1CCC(CC1)Nc2nc(nnc2c3ccccc3)c4ccccn4]
- concentration at 2 h [1]: 4070 ng/g
- concentration at 4 h [1]: 1760 ng/g
- concentration at 8 h [1]: 784 ng/g
- concentration at 0.5 h [2]: 3600 ng/mL
- concentration at 0.5 h [3]: 4280 ng/mL
- concentration at 1 h [2]: 3030 ng/mL
- concentration at 1 h [3]: 2450 ng/mL
- concentration at 2 h [2]: 1570 ng/mL
- concentration at 2 h [3]: 1370 ng/mL
- concentration at 4 h [2]: 687 ng/mL
- concentration at 4 h [3]: 539 ng/mL
- concentration at 8 h [2]: 273 ng/mL
- concentration at 8 h [3]: 205 ng/mL
- concentration at 0.5 h [4]: 14400 ng/g
- concentration at 1 h [4]: 12100 ng/g
- concentration at 2 h [4]: 6270 ng/g
- concentration at 4 h [4]: 2750 ng/g
- concentration at 8 h [4]: 1090 ng/g
- concentration at 0.5 h (C57BL/6 J, muscle homogenate, 20 mg/kg, Muscle, read-out: Mean Plasma or Tissue Homogenate Conc): 516 ng/mL
- concentration at 0.5 h (C57BL/6 J, muscle homogenate, 20 mg/kg, Muscle, read-out: Plasma or Tissue Homogenate Conc (individual animals)): 443 ng/mL
- concentration at 1 h [5]: 390 ng/mL
- concentration at 1 h [6]: 336 ng/mL
- concentration at 2 h [5]: 192 ng/mL
- concentration at 2 h [6]: 152 ng/mL
- concentration at 4 h [5]: 83.3 ng/mL
- concentration at 4 h [6]: 63.6 ng/mL
- concentration at 8 h [5]: 33.1 ng/mL
- concentration at 8 h [6]: 26.1 ng/mL
- concentration at 0.5 h (C57BL/6 J, muscle, 20 mg/kg, Muscle, read-out: Mean Tissue): 2060 ng/g
- concentration at 1 h [7]: 1560 ng/g
- concentration at 2 h [7]: 768 ng/g
- concentration at 4 h [7]: 333 ng/g
- concentration at 8 h [7]: 132 ng/g
- concentration at 0.5 h [8]: 10500 ng/mL
- concentration at 0.5 h [9]: 12300 ng/mL
- concentration at 1 h [8]: 9150 ng/mL
- concentration at 1 h [9]: 7700 ng/mL
- concentration at 2 h [8]: 4810 ng/mL
- concentration at 2 h [9]: 5560 ng/mL
- concentration at 4 h [8]: 2190 ng/mL
- concentration at 4 h [9]: 1930 ng/mL
- concentration at 8 h [8]: 1030 ng/mL
- concentration at 8 h [9]: 868 ng/mL
- Kp at 1 h [10]: 0.17
- Kp at 2 h [10]: 0.16
- Kp at 4 h [10]: 0.152
- Kp at 8 h [10]: 0.128
- Kp at 0.5 h (C57BL/6 J, Brain): 0.134
- Kp at 1 h (C57BL/6 J, Brain): 0.12
- Kp at 2 h (C57BL/6 J, Brain): 0.113
- Kp at 4 h (C57BL/6 J, Brain): 0.105
- Kp at 8 h (C57BL/6 J, Brain): 0.086
- Kp at 1 h (C57BL/6 J, Kidney): 0.929
- Kp at 2 h (C57BL/6 J, Kidney): 0.846
- Kp at 4 h (C57BL/6 J, Kidney): 0.801
- Kp at 8 h (C57BL/6 J, Kidney): 0.758
- Kp at 0.5 h (C57BL/6 J, Muscle): 0.197
- levels in muscle (20 mg/kg i.p.): 1000 to 1600 nM
- tissue distribution (20 mg/kg i.p., 20 mg/kg): accumulated preferentially in liver and kidney; also recorded: moderately brain-penetrant
